Here are results for 6 molecules from PubChem BioAssay AID1259407 (Chemical Carcinogenesis Research Information System (CCRIS), 2018).

Calls of active or inactive are those of the source. No rule for the calls is given here.

The data set concerns CCRIS mutagenicity, Ames/micronucleus/aberration tests. The data set is described as follows: CCRIS mutagenicity studies.
The mark [1] stands for this setting: Test System: AMES SALMONELLA TYPHIMURIUM, Strain/Indicator: TA100, Metabolic Activation: NONE, Method: PREINCUBATION
[2] abbreviates: Test System: AMES SALMONELLA TYPHIMURIUM, Strain/Indicator: TA100, Metabolic Activation: NONE, Method: STANDARD PLATE.

Turning to `N#Cc1ccccc1`, the mutagenic call (End Point: IN VITRO MICRONUCLEUS, Test System: CHINESE HAMSTER V79, Metabolic Activation: NONE) was “active; positive”; the mutagenic call (Test System: AMES SALMONELLA TYPHIMURIUM, Strain/Indicator: TA97, Metabolic Activation: HAMSTER, LIVER, S-9, AROCLOR 1254 (10 OR 30%), Method: PREINCUBATION) was “inactive; negative”; the mutagenic call (Test System: AMES SALMONELLA TYPHIMURIUM, Strain/Indicator: TA97, Metabolic Activation: NONE, Method: PREINCUBATION) was “inactive; negative”; the mutagenic call (Test System: AMES SALMONELLA TYPHIMURIUM, Strain/Indicator: TA97, Metabolic Activation: RAT, LIVER, S-9, AROCLOR 1254 (10 OR 30%), Method: PREINCUBATION) is “inactive; negative”; the mutagenic call (Test System: AMES SALMONELLA TYPHIMURIUM, Strain/Indicator: TA98, Metabolic Activation: HAMSTER, LIVER, S-9, AROCLOR 1254 (10 OR 30%), Method: PREINCUBATION) was “inactive; negative”; the mutagenic call (Test System: AMES SALMONELLA TYPHIMURIUM, Strain/Indicator: TA98, Metabolic Activation: HAMSTER, LIVER, S-9, AROCLOR 1254, Method: STANDARD PLATE) was “inactive; negative”. Also, the mutagenic call (Test System: AMES SALMONELLA TYPHIMURIUM, Strain/Indicator: TA98, Metabolic Activation: NONE, Method: PREINCUBATION) was “inactive; negative”; the mutagenic call (Test System: AMES SALMONELLA TYPHIMURIUM, Strain/Indicator: TA98, Metabolic Activation: NONE, Method: STANDARD PLATE) is “inactive; negative”; the mutagenic call (Test System: AMES SALMONELLA TYPHIMURIUM, Strain/Indicator: TA98, Metabolic Activation: RAT LIVER S-9, PHENOBARBITAL AND BETA-NAPHTHOFLAVONE, Method: PREINCUBATION) is “inactive; negative”; the mutagenic call (Test System: AMES SALMONELLA TYPHIMURIUM, Strain/Indicator: TA98, Metabolic Activation: RAT, LIVER, S-9, AROCLOR 1254 (10 OR 30%), Method: PREINCUBATION) is “inactive; negative”; the mutagenic call (Test System: AMES SALMONELLA TYPHIMURIUM, Strain/Indicator: TA98, Metabolic Activation: RAT, LIVER, S-9, AROCLOR 1254, Method: STANDARD PLATE) is “inactive; negative”; the mutagenic call (Test System: AMES SALMONELLA TYPHIMURIUM, Strain/Indicator: TA100, Metabolic Activation: HAMSTER, LIVER, S-9, AROCLOR 1254 (10 OR 30%), Method: PREINCUBATION) is “inactive; negative”. Also, the mutagenic call was “inactive; negative” (Test System: AMES SALMONELLA TYPHIMURIUM, Strain/Indicator: TA100, Metabolic Activation: HAMSTER, LIVER, S-9, AROCLOR 1254, Method: STANDARD PLATE); “inactive; negative” under setting [1]; “inactive; negative” under setting [2]; “inactive; negative” (Test System: AMES SALMONELLA TYPHIMURIUM, Strain/Indicator: TA100, Metabolic Activation: RAT LIVER S-9, PHENOBARBITAL AND BETA-NAPHTHOFLAVONE, Method: PREINCUBATION); “inactive; negative” (Test System: AMES SALMONELLA TYPHIMURIUM, Strain/Indicator: TA100, Metabolic Activation: RAT, LIVER, S-9, AROCLOR 1254 (10 OR 30%), Method: PREINCUBATION); “inactive; negative” (Test System: AMES SALMONELLA TYPHIMURIUM, Strain/Indicator: TA100, Metabolic Activation: RAT, LIVER, S-9, AROCLOR 1254, Method: STANDARD PLATE). For the same molecule, the mutagenic call is, setting by setting: (Test System: AMES SALMONELLA TYPHIMURIUM, Strain/Indicator: TA1535, Metabolic Activation: HAMSTER, LIVER, S-9, AROCLOR 1254 (10 OR 30%), Method: PREINCUBATION) “inactive; negative”; (Test System: AMES SALMONELLA TYPHIMURIUM, Strain/Indicator: TA1535, Metabolic Activation: HAMSTER, LIVER, S-9, AROCLOR 1254, Method: STANDARD PLATE) “inactive; negative”; (Test System: AMES SALMONELLA TYPHIMURIUM, Strain/Indicator: TA1535, Metabolic Activation: NONE, Method: PREINCUBATION) “inactive; negative”; (Test System: AMES SALMONELLA TYPHIMURIUM, Strain/Indicator: TA1535, Metabolic Activation: NONE, Method: STANDARD PLATE) “inactive; negative”; (Test System: AMES SALMONELLA TYPHIMURIUM, Strain/Indicator: TA1535, Metabolic Activation: RAT LIVER S-9, PHENOBARBITAL AND BETA-NAPHTHOFLAVONE, Method: PREINCUBATION) “inactive; negative”; (Test System: AMES SALMONELLA TYPHIMURIUM, Strain/Indicator: TA1535, Metabolic Activation: RAT, LIVER, S-9, AROCLOR 1254 (10 OR 30%), Method: PREINCUBATION) “inactive; negative”. Also, the mutagenic call is, setting by setting: (Test System: AMES SALMONELLA TYPHIMURIUM, Strain/Indicator: TA1535, Metabolic Activation: RAT, LIVER, S-9, AROCLOR 1254, Method: STANDARD PLATE) “inactive; negative”; (Test System: AMES SALMONELLA TYPHIMURIUM, Strain/Indicator: TA1537, Metabolic Activation: HAMSTER, LIVER, S-9, AROCLOR 1254, Method: STANDARD PLATE) “inactive; negative”; (Test System: AMES SALMONELLA TYPHIMURIUM, Strain/Indicator: TA1537, Metabolic Activation: NONE, Method: PREINCUBATION) “inactive; negative”; (Test System: AMES SALMONELLA TYPHIMURIUM, Strain/Indicator: TA1537, Metabolic Activation: NONE, Method: STANDARD PLATE) “inactive; negative”; (Test System: AMES SALMONELLA TYPHIMURIUM, Strain/Indicator: TA1537, Metabolic Activation: RAT LIVER S-9, PHENOBARBITAL AND BETA-NAPHTHOFLAVONE, Method: PREINCUBATION) “inactive; negative”; (Test System: AMES SALMONELLA TYPHIMURIUM, Strain/Indicator: TA1537, Metabolic Activation: RAT, LIVER, S-9, AROCLOR 1254, Method: STANDARD PLATE) “inactive; negative”. The mutagenic call by setting is: (Test System: AMES SALMONELLA TYPHIMURIUM, Strain/Indicator: TA1538, Metabolic Activation: HAMSTER, LIVER, S-9, AROCLOR 1254, Method: STANDARD PLATE) “inactive; negative”; (Test System: AMES SALMONELLA TYPHIMURIUM, Strain/Indicator: TA1538, Metabolic Activation: NONE, Method: STANDARD PLATE) “inactive; negative”; (Test System: AMES SALMONELLA TYPHIMURIUM, Strain/Indicator: TA1538, Metabolic Activation: RAT, LIVER, S-9, AROCLOR 1254, Method: STANDARD PLATE) “inactive; negative”; (Test System: E. COLI, Strain/Indicator: WP2UVRA, Metabolic Activation: NONE, Method: PREINCUBATION) “inactive; negative”; (Test System: E. COLI, Strain/Indicator: WP2UVRA, Metabolic Activation: RAT LIVER S-9, PHENOBARBITAL AND BETA-NAPHTHOFLAVONE, Method: PREINCUBATION) “inactive; negative”; (Test System: MOUSE LYMPHOMA, Strain/Indicator: L5178Y (TK+/TK-), Metabolic Activation: NONE, Method: SUSPENSION/PLATE) “inactive; negative. reevaluation of results: negative”. Also, the mutagenic call (Test System: MOUSE LYMPHOMA, Strain/Indicator: L5178Y (TK+/TK-), Metabolic Activation: RAT, LIVER, S-9, AROCLOR 1254, Method: SUSPENSION/PLATE) was “inactive; negative. reevaluation of results: negative”.
On to `CC1=C(Cl)C(=O)NC1=O`, for which the mutagenic call under setting [2] was “inactive; negative”.
As to `CN(C)C(=N)N=C(N)N`, the mutagenic call (End Point: In vivo micronucleus, Test System: Bone marrow erythrocytes, Species: Mouse, Strain/Sex: Swiss albino/Male, Route: Oral) was “inactive; negative”.
Take `C[n+]1cccc2c1C=C[C@H]1O[C@@H]21`: the mutagenic call is, setting by setting: under setting [2], “inactive; negative”; (Test System: AMES SALMONELLA TYPHIMURIUM, Strain/Indicator: TA100, Metabolic Activation: RAT, LIVER, S-9, AROCLOR 1254 (20%), Method: STANDARD PLATE) “active; positive”.
Turning to `C[Si](C)(C)CN(N=O)C(N)=O`, the mutagenic call is, setting by setting: under setting [1], “active; positive”; (Test System: CHINESE HAMSTER V-79, Strain/Indicator: V-79/OUABAIN, Metabolic Activation: NONE) “active; positive”; (Test System: E. COLI, Strain/Indicator: H/R30R, Metabolic Activation: NONE, Method: PREINCUBATION) “active; positive”; (Test System: E. COLI, Strain/Indicator: HS30R UVRA, Metabolic Activation: NONE, Method: PREINCUBATION) “active; positive”; (Test System: E. COLI, Strain/Indicator: NG30 RECA, Metabolic Activation: NONE, Method: PREINCUBATION) “active; positive”; (Test System: E. COLI, Strain/Indicator: O16 POLA, Metabolic Activation: NONE, Method: PREINCUBATION) “active; positive”.
Consider `CCCCN(CCO)N=O`, for which, under “Test System: AMES SALMONELLA TYPHIMURIUM, Strain/Indicator: TA1535, Metabolic Activation: RAT, LIVER, S-9, KC500 OR PHENOBARBITAL, Method: LIQUID SUSPENSION”, the mutagenic call is “active; positive”.
